For assay [1], the target named is T1, Prostaglandin G/H synthase 1 (Ovis aries, UniProt P05979).
T1 sequence (P05979 whole entry): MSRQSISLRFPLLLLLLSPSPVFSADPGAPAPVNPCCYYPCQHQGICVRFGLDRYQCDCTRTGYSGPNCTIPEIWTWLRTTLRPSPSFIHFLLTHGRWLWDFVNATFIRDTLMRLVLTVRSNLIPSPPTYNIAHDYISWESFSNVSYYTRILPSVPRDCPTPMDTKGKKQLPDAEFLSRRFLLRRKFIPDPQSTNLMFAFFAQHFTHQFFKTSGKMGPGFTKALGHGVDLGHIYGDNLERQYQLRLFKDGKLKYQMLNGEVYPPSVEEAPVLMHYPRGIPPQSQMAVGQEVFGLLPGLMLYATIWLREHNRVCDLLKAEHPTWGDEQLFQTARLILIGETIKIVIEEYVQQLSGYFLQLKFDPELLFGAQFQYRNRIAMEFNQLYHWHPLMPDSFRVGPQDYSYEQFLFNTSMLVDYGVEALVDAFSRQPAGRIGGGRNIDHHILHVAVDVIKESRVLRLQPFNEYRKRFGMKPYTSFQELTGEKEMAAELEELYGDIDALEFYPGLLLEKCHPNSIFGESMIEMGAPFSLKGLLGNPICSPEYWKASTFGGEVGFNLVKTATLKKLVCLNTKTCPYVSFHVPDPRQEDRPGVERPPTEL
Nature of the assay: Inhibition of the ovine Prostaglandin G/H synthase 1 was determined by thin-layer chromatography assay.

For assay [2], the target named is T2, Prostaglandin G/H synthase 2 (Homo sapiens, UniProt P35354).
T2 sequence (P35354 whole entry): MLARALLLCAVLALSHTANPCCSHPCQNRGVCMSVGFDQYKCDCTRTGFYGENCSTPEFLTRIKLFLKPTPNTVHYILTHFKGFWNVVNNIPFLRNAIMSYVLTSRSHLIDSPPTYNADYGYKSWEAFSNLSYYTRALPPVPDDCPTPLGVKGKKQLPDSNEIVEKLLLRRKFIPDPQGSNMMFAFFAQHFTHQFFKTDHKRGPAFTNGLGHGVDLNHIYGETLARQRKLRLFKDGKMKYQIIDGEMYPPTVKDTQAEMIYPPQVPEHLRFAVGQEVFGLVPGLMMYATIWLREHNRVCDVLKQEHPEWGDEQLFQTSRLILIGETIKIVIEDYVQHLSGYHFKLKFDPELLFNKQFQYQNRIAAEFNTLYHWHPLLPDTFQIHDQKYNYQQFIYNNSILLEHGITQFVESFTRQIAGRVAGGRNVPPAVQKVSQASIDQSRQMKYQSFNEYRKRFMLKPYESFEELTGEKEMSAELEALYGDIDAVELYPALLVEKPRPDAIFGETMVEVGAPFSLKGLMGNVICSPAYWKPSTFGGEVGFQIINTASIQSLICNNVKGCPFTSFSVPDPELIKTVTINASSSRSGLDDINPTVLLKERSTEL
Description: Inhibition of the human Prostaglandin G/H synthase 2 was determined by thin-layer chromatography assay

Assay [3] deals with T3, Prostaglandin G/H synthase 2 (Mus musculus, UniProt Q05769, R106A). Nature of the assay: Inhibition of the murine Arg120Ala mutant type COX-2.
Assay [4] addresses T4, Prostaglandin G/H synthase 2 (Mus musculus, UniProt Q05769).
T4 sequence (Q05769 whole entry): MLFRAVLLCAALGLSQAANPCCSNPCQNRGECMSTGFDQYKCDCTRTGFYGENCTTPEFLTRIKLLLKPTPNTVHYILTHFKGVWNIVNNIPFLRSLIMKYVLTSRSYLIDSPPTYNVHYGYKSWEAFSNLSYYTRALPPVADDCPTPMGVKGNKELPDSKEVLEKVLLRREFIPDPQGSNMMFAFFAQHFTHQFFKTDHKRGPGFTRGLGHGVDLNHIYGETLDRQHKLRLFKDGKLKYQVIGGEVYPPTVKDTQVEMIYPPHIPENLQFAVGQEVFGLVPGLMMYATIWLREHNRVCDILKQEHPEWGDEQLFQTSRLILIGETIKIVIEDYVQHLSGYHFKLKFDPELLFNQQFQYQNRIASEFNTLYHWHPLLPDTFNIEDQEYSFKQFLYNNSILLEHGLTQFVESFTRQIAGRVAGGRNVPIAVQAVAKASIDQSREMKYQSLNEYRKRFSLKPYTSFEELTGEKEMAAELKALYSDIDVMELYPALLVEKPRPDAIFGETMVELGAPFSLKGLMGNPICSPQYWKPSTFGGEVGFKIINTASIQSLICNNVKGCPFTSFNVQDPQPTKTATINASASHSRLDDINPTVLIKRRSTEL
Nature of the assay: Inhibition of the murine wild type Prostaglandin G/H synthase 2.

Assay [5] can be described thus: Inhibitory concentration against prostaglandin E2.
Assay [6] concerns the target T3, Prostaglandin G/H synthase 2.
Description: Inhibition of the Arg120Ala murine COX-2 mutant enzyme

Molecules are shown by their SMILES. Where only a bound is given, the exact number is not on record here.

As usually defined, the IC50 is the midpoint of a concentration-inhibition curve.

T3 sequence (Q05769 18-604 R106A limits assumed): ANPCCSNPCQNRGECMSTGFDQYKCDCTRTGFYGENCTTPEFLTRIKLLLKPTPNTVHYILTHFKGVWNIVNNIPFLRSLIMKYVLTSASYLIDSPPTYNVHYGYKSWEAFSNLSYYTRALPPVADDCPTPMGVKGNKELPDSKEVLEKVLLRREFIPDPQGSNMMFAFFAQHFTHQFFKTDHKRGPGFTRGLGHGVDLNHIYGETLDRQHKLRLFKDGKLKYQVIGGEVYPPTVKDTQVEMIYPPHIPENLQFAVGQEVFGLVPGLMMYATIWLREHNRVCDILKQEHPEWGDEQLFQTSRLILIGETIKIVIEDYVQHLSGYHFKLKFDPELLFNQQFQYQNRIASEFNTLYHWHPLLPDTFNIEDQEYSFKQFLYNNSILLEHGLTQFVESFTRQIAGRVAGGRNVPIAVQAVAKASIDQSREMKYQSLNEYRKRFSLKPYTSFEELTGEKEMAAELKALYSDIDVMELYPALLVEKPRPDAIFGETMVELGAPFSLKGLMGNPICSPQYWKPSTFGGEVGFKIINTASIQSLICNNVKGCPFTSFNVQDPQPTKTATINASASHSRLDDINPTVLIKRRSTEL

As to `CC(=O)Nc1ccc(OC(=O)c2ccccc2Nc2c(Cl)ccc(C)c2Cl)cc1`, the IC50 in assay [1] and in assay [2] was > 20 µM throughout.
Turning to `COCCCNC(=O)c1ccccc1Nc1c(Cl)ccc(C)c1Cl`, the IC50 turned out to be 0.25 µM in assay [1] and 11 µM in assay [2].
With `CONC(=O)c1ccccc1Nc1c(Cl)ccc(C)c1Cl`, the IC50 in assay [1] stood at 0.5 µM; in assay [2] it was 55 µM.
Turning to `COC(=O)CNC(=O)c1ccccc1Nc1c(Cl)ccc(C)c1Cl`, the IC50 turned out to be 0.07 µM in assay [1] and 1.2 µM in assay [2].
The matching figures for `Cc1ccc(Cl)c(Nc2ccccc2C(=O)N[C@@H](C)C(=O)O)c1Cl`: 6 µM and 33 µM.
The matching figures for `Cc1ccc(Cl)c(Nc2ccccc2C(=O)NNCc2ccccc2)c1Cl`: 5 µM and 6.3 µM.
The matching figures for `COCCNC(=O)c1ccccc1Nc1c(Cl)ccc(C)c1Cl`: 0.14 µM and 3 µM.
`COC(=O)[C@H](C)NC(=O)c1ccccc1Nc1c(Cl)ccc(C)c1Cl`: the IC50 in assay [1] amounted to 0.8 µM; in assay [2] it was 2.6 µM.
The corresponding values for `Cc1ccc(Cl)c(Nc2ccccc2C(=O)NCCO)c1Cl` are 0.6 µM and 1 µM.
As for `Cc1ccc(Cl)c(Nc2ccccc2C(=O)O)c1Cl` [MECLOFENAMIC ACID], the 50% inhibitory concentration (IC50) in assay [3] worked out at 0.4 µM; in assay [1], 0.05 µM; in assay [4] it was 0.2 µM; in assay [2], 0.04 µM.
Take `CCOC(=O)CNC(=O)c1ccccc1Nc1c(Cl)ccc(C)c1Cl`: the IC50 in assay [1] turned out to be 0.2 µM; in assay [2] it was 4 µM.
The corresponding values for `Cc1ccc(Cl)c(Nc2ccccc2C(=O)NCCBr)c1Cl` are 0.07 µM and 2 µM.
The matching figures for `Cc1ccc(Cl)c(Nc2ccccc2C(=O)N[C@H](C)C(=O)O)c1Cl`: 8 µM and > 33 µM.
The corresponding values for `Cc1ccc(Cl)c(Nc2ccccc2C(=O)NOCc2ccc([N+](=O)[O-])cc2)c1Cl` are 0.2 µM and 66 µM.
As to `Cc1ccc(Cl)c(Nc2ccccc2C(=O)NCC(=O)O)c1Cl`, the IC50 was 0.4 µM in assay [1] and 0.3 µM in assay [2].
The corresponding values for `COC(=O)c1ccccc1Nc1c(Cl)ccc(C)c1Cl` are 17 µM and 4 µM.
In the case of `CCCCCCCCNC(=O)c1ccccc1Nc1c(Cl)ccc(C)c1Cl`, the 50% inhibitory concentration (IC50) in assay [1] amounted to 0.05 µM; in assay [2] it was 0.06 µM.
Regarding `Cc1ccc(Cl)c(Nc2ccccc2C(=O)NCCCCl)c1Cl`, the IC50 in assay [1] was 0.06 µM; in assay [2], 2.4 µM.
The corresponding values for `Cc1ccc(Cl)c(Nc2ccccc2C(=O)NCCc2ccccc2)c1Cl` are 4.5 µM and 4 µM.
In the case of `Cc1ccc(Cl)c(Nc2ccccc2C(=O)NCCOc2ccccc2)c1Cl`, the IC50 came out at 0.15 µM in assay [1], 1.8 µM in assay [5], 0.55 µM in assay [6] and 66 µM in assay [2].
As to `COC(=O)[C@@H](C)NC(=O)c1ccccc1Nc1c(Cl)ccc(C)c1Cl`, the figures for the concentration for half-maximal inhibition (IC50) in assay [1] and in assay [2] were 2.7 µM and 6 µM, respectively.
The corresponding values for `Cc1ccc(Cl)c(Nc2ccccc2C(=O)NOC(C)(C)C)c1Cl` are 8 µM and 66 µM.
Take `CNC(=O)c1ccccc1Nc1c(Cl)ccc(C)c1Cl`: the IC50 in assay [1] and in assay [2] was > 2 µM throughout.
Turning to `Cc1ccc(Cl)c(Nc2ccccc2C(=O)NOCc2ccccc2)c1Cl`, the IC50 in assay [1] was 1 µM; in assay [2] it was 66 µM.

Values taken from ChEMBL document CHEMBL1135055, “Amide derivatives of meclofenamic acid as selective cyclooxygenase-2 inhibitors” (Bioorg Med Chem Lett, 2002).
